Data: ChEMBL document CHEMBL3526091, “Pharmacokinetics, metabolism, and excretion of the glycogen synthase kinase-3 inhibitor LY2090314 in rats, dogs, and humans: a case study in rapid clearance by extensive metabolism with low circulating metabolite exposure” (Drug Metab Dispos, 2013)

Tests used:
[1] = Tmax in cancer patient at 120 mg for 60 mins treated 1/8 cycle/day; assay type: ADME, organism-based; set-up: dosed compound name LY2090314; settings: human, in vivo
[2] = AUC (0 to infinity) in cancer patient at 40 mg for 60 mins treated 1/8 cycle/day; assay type: ADME, organism-based; set-up: dose 40 mg, time infinity, dosed compound name LY2090314; settings: human, plasma
[3] = Clearance in beagle dog at 5 mg/kg, iv administered for 30 mins; assay type: ADME, organism-based, Canis lupus familiaris; set-up: dose 5 mg/kg, dosed compound name [14C]LY2090314, route intravenous; settings: in vivo
[4] = Cmax in cancer patient at 10 mg for 60 mins treated 1/1 cycle/day; assay type: ADME, organism-based; set-up: dose 10 mg, dosed compound name LY2090314; settings: human, in vivo
Blood = assay: Drug uptake in Sprague-Dawley rat blood at 5 mg/kg, iv administered for 30 mins; assay type: ADME, organism-based; set-up: dose 5 mg/kg, dosed compound name [14C]LY2090314, route intravenous; settings: in vivo, 0.5 h
[5] = AUC (0 to infinity) in cancer patient at 10 mg for 60 mins treated 2/1 cycle/day; assay type: ADME, organism-based; set-up: dose 10 mg, time infinity, dosed compound name LY2090314; settings: human, plasma
[6] = Half life in cancer patient at 80 mg for 60 mins treated 1/1 cycle/day; assay type: ADME, organism-based; set-up: dosed compound name LY2090314; settings: human, in vivo
[7] = Drug metabolism in Mrp2 knockout Sprague-Dawley rat urine at 5 mg/kg, iv administered for 30 mins; assay type: ADME, organism-based; set-up: dose 5 mg/kg, dosed compound name LY2090314, route intravenous; settings: in vivo, 0.5 h
[8] = Drug recovery in bile duct-cannulated Sprague-Dawley rat cage/carcass at 5 mg/kg, iv administered for 30 mins during 0 to 168 hrs time interval by radio analysis; assay type: ADME, organism-based; set-up: dose 5 mg/kg, dosed compound name [14C]LY2090314, route intravenous; settings: in vivo
[9] = Tmax in cancer patient at 60 mg for 60 mins treated 1/8 cycle/day; assay type: ADME, organism-based; set-up: dosed compound name LY2090314; settings: human, in vivo
[10] = Drug recovery in bile duct-cannulated Sprague-Dawley rat feces at 5 mg/kg, iv administered for 30 mins during 0 to 168 hrs time interval by radio analysis; assay type: ADME, organism-based; set-up: dose 5 mg/kg, dosed compound name [14C]LY2090314, route intravenous; settings: in vivo
Canis familiaris [11] = assay: Total drug recovery in beagle dog at 5 mg/kg, iv administered for 30 mins during 0 to 24 hrs time interval by radio analysis; assay type: ADME, organism-based, Canis lupus familiaris; set-up: dose 5 mg/kg, dosed compound name [14C]LY2090314, route intravenous; settings: in vivo
Rattus norvegicus [12] = assay: Total drug recovery in Sprague-Dawley rat at 5 mg/kg, iv administered for 30 mins during 0 to 168 hrs time interval by radio analysis; assay type: ADME, organism-based; set-up: dose 5 mg/kg, dosed compound name [14C]LY2090314, route intravenous; settings: in vivo
[13] = Volume of distribution at steady state in cancer patient at 120 mg for 60 mins treated 1/8 cycle/day; assay type: ADME, organism-based; set-up: dosed compound name LY2090314; settings: human, in vivo, read-out: Vdss
[14] = AUC (0 to infinity) in beagle dog at 5 mg/kg, iv administered for 30 mins; assay type: ADME, organism-based, Canis lupus familiaris; set-up: time infinity, dose 5 mg/kg, dosed compound name [14C]LY2090314, route intravenous; settings: plasma
Rattus norvegicus [15] = assay: Total drug recovery in Sprague-Dawley rat at 5 mg/kg, iv administered for 30 mins during 0 to 24 hrs time interval by radio analysis; assay type: ADME, organism-based; set-up: dose 5 mg/kg, dosed compound name [14C]LY2090314, route intravenous; settings: in vivo
[16] = Clearance in cancer patient kidney at 80 to 120 mg for 60 mins; assay type: ADME, organism-based; set-up: dosed compound name LY2090314; settings: human, in vivo
[17] = Drug recovery in bile duct-cannulated Sprague-Dawley rat bile at 5 mg/kg, iv administered for 30 mins during 0 to 12 hrs time interval by radio analysis; assay type: ADME, organism-based; set-up: dose 5 mg/kg, dosed compound name [14C]LY2090314, route intravenous; settings: in vivo
[18] = Drug metabolism in Bcrp knockout Sprague-Dawley rat urine at 5 mg/kg, iv administered for 30 mins; assay type: ADME, organism-based; set-up: dose 5 mg/kg, dosed compound name LY2090314, route intravenous; settings: in vivo, 0.5 h
[19] = Clearance in cancer patient at 10 mg for 60 mins treated 1/1 cycle/day; assay type: ADME, organism-based; set-up: dosed compound name LY2090314; settings: human, in vivo
[20] = Cmax in cancer patient at 10 mg for 60 mins treated 2/1 cycle/day; assay type: ADME, organism-based; set-up: dose 10 mg, dosed compound name LY2090314; settings: human, in vivo
[21] = AUC (0 to infinity) in cancer patient at 10 mg for 60 mins treated 1/1 cycle/day; assay type: ADME, organism-based; set-up: dose 10 mg, time infinity, dosed compound name LY2090314; settings: human, plasma
[22] = Volume of distribution at steady state in cancer patient at 20 mg for 60 mins treated 2/1 cycle/day; assay type: ADME, organism-based; set-up: dosed compound name LY2090314; settings: human, in vivo, read-out: Vdss
Canis familiaris [23] = assay: Total drug recovery in beagle dog at 5 mg/kg, iv administered for 30 mins during 0 to 168 hrs time interval by radio analysis; assay type: ADME, organism-based, Canis lupus familiaris; set-up: dose 5 mg/kg, dosed compound name [14C]LY2090314, route intravenous; settings: in vivo
[24] = Drug recovery in bile duct-intact Sprague-Dawley rat assessed as radioactivity in feces during 0 to 24 hrs at 5 mg/kg, iv administered for 30 mins relative to dosed radioactivity; assay type: ADME, organism-based; set-up: dose 5 mg/kg, dosed compound name [14C]LY2090314, route intravenous; settings: in vivo
Rattus norvegicus [25] = assay: Drug recovery in Sprague-Dawley rat cage at 5 mg/kg, iv administered for 30 mins during 0 to 168 hrs time interval by radio analysis; assay type: ADME, organism-based; set-up: dose 5 mg/kg, dosed compound name [14C]LY2090314, route intravenous; settings: in vivo

Tmax [1]: 30 min
AUC(0-inf) [2]: 938 ng·h/mL
clearance [3]: 27.9 mL/min/kg
Cmax [4]: 122 ng/mL
Compound recovery (Blood): 83.4%
AUC(0-inf) [5]: 192 ng·h/mL
half-life [6]: 154 min
Drug metabolism [7]: metabolite_detected
Radiolabel recovery [8]: 0.31%
Tmax [9]: 55.2 min
Radiolabel recovery [10]: 6.75%
Radiolabel recovery (Canis familiaris [11]): 61.5%
Radiolabel recovery (Rattus norvegicus [12]): 97.7%
Vd [13]: 143 L
AUC(0-inf) [14]: 3230 ng·h/mL
Radiolabel recovery (Rattus norvegicus [15]): 92.6%
CL renal at 1 h [16]: 14.2 mL/min
Radiolabel recovery [17]: 85.2%
Drug metabolism [18]: metabolite_detected
clearance [19]: 787 mL/min
Cmax [20]: 106 ng/mL
AUC(0-inf) [21]: 216 ng·h/mL
Vd [22]: 71.5 L
Radiolabel recovery (Canis familiaris [23]): 93%
Radiolabel recovery [24]: 2.4%
Radiolabel recovery (Rattus norvegicus [25]): 0.14%
SMILES: O=C1NC(=O)C(c2cnc3ccccn23)=C1c1cn2c3c(cc(F)cc13)CN(C(=O)N1CCCCC1)CC2 [LY-2090314]
